# Calls of active or inactive are those of the source. The rule behind the calls is not given here.
# Key:
# [1] = Toxicity in Swiss Mus musculus (mouse) measured after 6 days; type: organism-based; details: in vivo
# [2] = test system: Zeuzera pyrina; assay: Inhibition of electroantennogram response of Zeuzera pyrina males to sex pheromone at 0.5 ug/antenna topical application by electrophysiology; type: functional, organism-based
# [3] = test system: Zeuzera pyrina; assay: Inhibition of electroantennogram response of Zeuzera pyrina males to sex pheromone at 1 ug/antenna topical application by electrophysiology; type: functional
# [4] = test system: Zeuzera pyrina; assay: Inhibition of electroantennogram response of Zeuzera pyrina males to sex pheromone at 0.1 ug/antenna topical application by electrophysiology; type: functional, organism-based
# [5] = test system: Zeuzera pyrina; assay: Inhibition of electroantennogram response of Zeuzera pyrina males to sex pheromone at =>0.05 ug/antenna topical application by electrophysiology; type: functional, organism-based
# [6] = test system: Zeuzera pyrina; assay: Effect on response of Zeuzera pyrina males to the calling female assessed as complete upwind fligts up to 10 ug by Wind tunnel assay; type: functional
# [7] = test system: Zeuzera pyrina; assay: Effect on response of Zeuzera pyrina males to the calling female assessed as contact to female up to 10 ug by Wind tunnel assay; type: functional
# [8] = test system: Zeuzera pyrina; assay: Effect on response of Zeuzera pyrina males to the calling female assessed as flight towords source up to 10 ug by Wind tunnel assay; type: functional
# [9] = test system: Zeuzera pyrina; assay: Effect on response of Zeuzera pyrina males to the calling female assessed as male took off up to 10 ug by Wind tunnel assay; type: functional
# [10] = test system: Daphnia; assay: Toxicity in Daphnia assessed as survial; type: organism-based
structure (smiles),measurement,setting,value
CCCCCCCCSCC(=O)C(F)(F)F,LD50 at 144 h,[1],1000 mg/kg
CCCC/C=C\CCCCCCCCC/C=C/CC(=O)C(F)(F)F,inhibition,[2],Active
same,inhibition (INH),[3],>80%
same,Activity,[4],Active
same,inhibition,[5],Active
CCCC/C=C\CCCCCCCC/C=C/CCC(=O)C(F)(F)F,inhibition (INH),[3],>80%
same,Activity,[4],Active
same,Activity,[6],55%
same,Activity,[7],55%
same,Activity,[8],62%
same,Activity,[9],95%
CCCC/C=C\CCCCCCCCCCC(=O)C(F)(F)F,EC50,[10],0.07 µg/mL
same,LD50 at 144 h,[1],1000 mg/kg
